Among the test systems are HCT-116 colon; KM12 colon; UACC-62 melanoma; TK-10 renal; PC-3 prostate; HT29 colon; OVCAR-4 ovarian; SNB-19 CNS; EKVX NSCLC; 786-0 renal; CAKI-1 renal.
Holding throughout (assay): growth of human tumour cells (NCI), 48 h

SMILES strings stand for the structures.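 Assay format: 96-well plates, 48-hour exposure. The concentration for full growth arrest is given as TGI.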 Some results are limits rather than exact numbers.

Regarding `Cc1ccc(N2C(=O)C3c4[nH]c5ccccc5c4C4CCC(C(C)(C)C)CC4C3C2=O)cc1` (stereo not drawn), the TGI in the assay with HCT-116 colon amounted to 24.6 µM; in the assay on KM12 colon, 65 µM; in the assay with UACC-62 melanoma it was 31 µM; in the assay on TK-10 renal, 15.7 µM; with PC-3 prostate, 31.8 µM; in the assay on HT29 colon, 46.1 µM. Also, the TGI with OVCAR-4 ovarian is 22.7 µM; in the assay on SNB-19 CNS, 21.2 µM; in the assay on EKVX NSCLC it was 42.4 µM; in the assay on 786-0 renal, 14.8 µM; with CAKI-1 renal, 23.2 µM.

With `C1=NCCNCCN=Cc2ccc(cc2)OCc2cccc(n2)COc2ccc1cc2`, the TGI in the assay on HCT-116 colon, in the assay on KM12 colon, in the assay on UACC-62 melanoma, in the assay with PC-3 prostate, in the assay with HT29 colon and in the assay with OVCAR-4 ovarian was greater than 100 µM throughout. For the same molecule, the TGI with SNB-19 CNS, in the assay on EKVX NSCLC, with 786-0 renal and in the assay on CAKI-1 renal was greater than 100 µM each time.

Turning to `COC(=O)C1CC2(CCC1=O)Cc1ccccc1C2=O` (stereo not drawn), the TGI in the assay on HCT-116 colon, with KM12 colon, with UACC-62 melanoma, in the assay on TK-10 renal, in the assay on PC-3 prostate and with HT29 colon was greater than 100 µM in each case. Further, the TGI with OVCAR-4 ovarian, with SNB-19 CNS, in the assay on EKVX NSCLC, with 786-0 renal and with CAKI-1 renal was greater than 100 µM each time.

With `COc1cc(OC)c(OC)cc1/C=N/N=C(\N)NO`, the TGI in the assay on HCT-116 colon, in the assay with KM12 colon, in the assay on UACC-62 melanoma, with TK-10 renal, in the assay with PC-3 prostate and in the assay on HT29 colon was greater than 100 µM throughout. Also, the TGI with OVCAR-4 ovarian, in the assay on SNB-19 CNS, in the assay on EKVX NSCLC, with 786-0 renal and in the assay on CAKI-1 renal was greater than 100 µM each time.

With `O=C(Cn1c2c(c3ccccc31)CCCC2)NC1CCCCC1`, the TGI in the assay with HCT-116 colon, in the assay with UACC-62 melanoma, with TK-10 renal, in the assay with PC-3 prostate, in the assay on HT29 colon and with OVCAR-4 ovarian was greater than 100 µM throughout. For the same molecule, the TGI with SNB-19 CNS, with EKVX NSCLC, in the assay on 786-0 renal and in the assay on CAKI-1 renal was greater than 100 µM each time.

In the case of `CC(=O)OCC(OC(C)=O)C(OC(C)=O)C(C=NN(C(C)=O)S(=O)(=O)c1ccc(/C=C2\NC(=O)NC2=O)cc1)OC(C)=O` (stereo not drawn), the TGI with HCT-116 colon, in the assay on UACC-62 melanoma, in the assay with TK-10 renal, with PC-3 prostate, with HT29 colon and in the assay on OVCAR-4 ovarian was greater than 100 µM in each case. Also, the TGI in the assay with SNB-19 CNS, in the assay with EKVX NSCLC, in the assay on 786-0 renal and in the assay with CAKI-1 renal was greater than 100 µM throughout.

With `COC(=O)C1=CSC2(S1)C(C(=O)OC)=CSc1c2ssc1=Nc1ccccc1` (stereo not drawn), the TGI in the assay with HCT-116 colon is 4.06 µM; in the assay with KM12 colon, 10.1 µM; in the assay on UACC-62 melanoma, 3.52 µM; in the assay with TK-10 renal, 10.4 µM; with PC-3 prostate it was greater than 100 µM; in the assay on HT29 colon it was 5.85 µM. The TGI with OVCAR-4 ovarian is 8.06 µM; with SNB-19 CNS, 8.71 µM; in the assay on EKVX NSCLC, greater than 100 µM; in the assay with 786-0 renal, 3.87 µM; with CAKI-1 renal, 32.9 µM.

As to `N#C/C(=C\c1ccccc1)C(=O)Nc1nnc(-c2ccccc2)o1`, the TGI with HCT-116 colon is greater than 100 µM; with KM12 colon, greater than 100 µM; in the assay on UACC-62 melanoma, 53.7 µM; in the assay with TK-10 renal, greater than 100 µM; in the assay on PC-3 prostate, greater than 100 µM; in the assay on HT29 colon, greater than 100 µM. In addition, the TGI in the assay on OVCAR-4 ovarian is greater than 100 µM; in the assay on EKVX NSCLC it was greater than 100 µM; with 786-0 renal it was greater than 100 µM; in the assay on CAKI-1 renal it was 73.2 µM.

In the case of `CC12Nc3ccccc3N1C(=O)c1ccccc12` (stereo not drawn), the TGI in the assay with HCT-116 colon, in the assay with KM12 colon, in the assay with UACC-62 melanoma, in the assay on TK-10 renal, with PC-3 prostate and with HT29 colon was greater than 100 µM throughout. The TGI in the assay with OVCAR-4 ovarian, with SNB-19 CNS, with EKVX NSCLC, in the assay with 786-0 renal and in the assay with CAKI-1 renal was greater than 100 µM throughout.

For `CCCCCC/C=C\CCCCCCCCCc1cccc(O)c1C(=O)O`, the TGI in the assay on HCT-116 colon, in the assay on KM12 colon, in the assay with UACC-62 melanoma, in the assay with TK-10 renal, with PC-3 prostate and with HT29 colon was greater than 100 µM each time. The TGI in the assay on OVCAR-4 ovarian, with SNB-19 CNS, in the assay with EKVX NSCLC, in the assay on 786-0 renal and in the assay on CAKI-1 renal was greater than 100 µM throughout.

With `O=c1oc2ccccc2c(Nc2ccc3c(c2)S(=O)(=O)c2ccccc2O3)c1[N+](=O)[O-]`, the TGI is 65 µM in the assay with HCT-116 colon; greater than 100 µM in the assay on KM12 colon; 40 µM with UACC-62 melanoma; 62.6 µM in the assay on TK-10 renal; 62.1 µM in the assay on PC-3 prostate; greater than 100 µM in the assay on HT29 colon. Besides, the TGI in the assay with OVCAR-4 ovarian was 73.5 µM; in the assay with SNB-19 CNS it was greater than 100 µM; in the assay with EKVX NSCLC, greater than 100 µM; in the assay on 786-0 renal it was 58.4 µM; in the assay with CAKI-1 renal, 51.3 µM.

As to `O=C1C2CC=CCC2C(=O)N1n1c(-c2ccccc2)n[nH]c1=O` (stereo not drawn), the TGI with HCT-116 colon, with KM12 colon, with UACC-62 melanoma, in the assay on TK-10 renal, in the assay on PC-3 prostate and in the assay with HT29 colon was greater than 100 µM each time. Also, the TGI in the assay on OVCAR-4 ovarian, with SNB-19 CNS, in the assay on EKVX NSCLC, with 786-0 renal and with CAKI-1 renal was greater than 100 µM each time.

For the origin of these results see PubChem BioAssay (NCI).
